Assay results published in US20080051419A1, “AMINE DERIVATIVES USEFUL AS ANTICANCER AGENTS” (PFIZER INC., priority 2006, published 2008).

Legend:
[1] = molecular target: T1, PKA, catalytic subunit, recombinant (Homo sapiens, UniProt P17612); assay: PKA IMAP Kinase Assay; assay type: biochemical; settings: for Selectivity Ratio (PKA/Akt): PKA IC50 divided by Akt IC50; for IC50: Table 6, selectivity study
T1 construct: purchased Upstate 14-440
Protocol: The PKA Kinase assay is used to measure the selectivity of the compounds of formula I for PKA kinase as discussed below. The PKA activity of the compounds of formula I was determined using the PKA IMAP® Kinase Assay (G7096A).
Materials: • 1) Kinase Reaction Buffer (RB):—10 mM Tris-HCl, pH 7.5, 10 mM MgCl2, 0.1 mM EGTA, 0.01% Triton-X 100 (Sigma #X-100); 1 mM DTT (N.E. Biolabs #B7705S) added fresh • 2) ATP (Sigma #5394) 10 mM stock in H2O, −20° C. • 3) 20 μM working stock TAMRA Kemptide (TK. Molecular Devices #R7332): [N-Term]TMRS-Leu-Arg-Arg-Ala-Ser-Leu-Gly-OH[C-Term] • 4) PKA, catalytic subunit, recombinant (Upstate #14-440). 5 ug/25 ul lot 22361AU • 5) DMSO (Baker #9224-01) • 6) IMAP® Progressive Express Screening Kit for IPP (Molecular Devices #R8124) Includes IMAP® Progressive Beads and Binding Buffer • 7) 96-well ½ area plates, black polystyrene, Costar #3694 • 8) 96-well round bottom polypropylene plates, Costar #9667
NOTE: Protect all Tamra-Containing Reagents from Light.
• 1) Prepare the 1× Reaction Buffer (RB) by fresh addition of DTT to 1 mM • 2) For single point testing, make up compound dilution plate as follows: “96 well plates; Row Empty: empty; 84 cmpds” are added to the remaining wells at […]. • 3) For 150 determination: To column 2 of polypropylene plate add 100 ul 100% DMSO; to all other wells add 60 ul 100% DMSO. • 4) Pipet 2 ul 10 mM stock compound to column 2; mix well • 5) Serially dilute 1:3 across from column 2-11, transferring 30 ul to next well and mixing well. • 6) Leave column 12 for zero compound (control signal) • 7) For Single Point testing (10 uM final) add 1 ul 10 mM compound to 100 ul DMSO; mix; transfer 5 ul to 120 ul RB; mix; transfer 5 ul to Assay Plate • 8) For 150 determination: Make up compound RB dilution plate: 60 μl/well RB in 96-well polypropylene round bottom plate. • 9) Transfer compounds to assay plate as follows: Mix DMSO dilutions; transfer 15 μl to 60 μl RB; transfer 5 μl/well to assay plates (single points, triplicate plates), delivering carefully to the bottom of the well; repeat for each dilution up to 10 μM. • 10) To run PKA Reactions: Make up ATP/KT solution; 4 uM ATP, 200 nM KT ([…], 100 nM KTfinal) • 11) Pipet 10 μl KT/ATP to wells containing compound. • 12) Make up protein solution in RB and determine the protein concentration. • 13) Deliver 5 μl protein solution to all wells except A1-H1, delivering to the upper region of the side of the well; Add 5 μl RB to A1-H1 (these are the 0 protein background controls) • 14) Gently tap the plate to ensure all volumes get to the bottom. Cover with foil lid. • 15) Incubate RT on bench top 30 minutes. • 16) Add 60 μl IMAP® beads in IMAP® Progressive binding buffer (100% A) diluted 1:1000 • 17) Read on VICTOR™ plate reader (protocol LissieTAMRA2) with the following settings: CW lamp filter 544 nm; emission filter 615 nm. Some adjustments may be made to the plate reader protocol depending on the reader and available filters. • 18) Use XLDA to calculate IC50s.

Akt1 = molecular target: T2, Akt1 (Homo sapiens, UniProt P31749, S473D); assay: Akt1 kinase assay, fluorescence polarization (IMAP); assay type: biochemical; settings: Table 6, selectivity study; read-out: Akt Kinase Activity
T2 construct: The version of Akt used in these studies lacks the pleckstrin homology (PH) domain
T2 sequence (P31749 118-480 S473D limits assumed, species assumed): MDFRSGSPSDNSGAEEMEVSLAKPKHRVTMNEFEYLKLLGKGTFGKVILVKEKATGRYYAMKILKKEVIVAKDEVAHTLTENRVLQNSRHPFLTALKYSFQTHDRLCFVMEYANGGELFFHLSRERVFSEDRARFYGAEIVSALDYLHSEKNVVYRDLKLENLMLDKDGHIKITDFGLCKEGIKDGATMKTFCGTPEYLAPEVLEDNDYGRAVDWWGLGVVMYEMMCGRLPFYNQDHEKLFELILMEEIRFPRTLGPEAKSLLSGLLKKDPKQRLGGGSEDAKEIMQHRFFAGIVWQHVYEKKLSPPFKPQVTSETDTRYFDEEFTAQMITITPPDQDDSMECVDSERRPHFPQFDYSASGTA
Summary of the method: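 His-tagged Akt1 lacking the PH domain, Thr308-prephosphorylated, 1.5 ng per reaction, with 4 μM ATP and 40 nM TAMRA-Crosstide (solution concentrations) in Tris pH 7.5/MgCl2/DTT buffer. Incubated 30 min at ambient temperature; IMAP fluorescence polarization read (544/615 nm). IC50 after subtraction of no-enzyme background.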

| SMILES | Selectivity Ratio (PKA/Akt) [1] | IC50 [1] [nM] | IC50 (Akt1) [nM] |
| --- | --- | --- | --- |
| Cc1c[nH]c2ncnc(N3CCC(N)(CNc4ccccc4)C3)c12 (stereo not drawn) [Example 199, 3-((phenylamino)methyl)-1-(5-methyl-7H-pyrrolo[2,3-d]pyrimidin-4-yl)pyrrolidin-3-amine] | 15.93 | 2580 | 162 |
| Cc1c[nH]c2ncnc(N3CCC(N)(CNc4ccc(Cl)cc4)CC3)c12 [BB, 4-(4-chloro(phenylamino)methyl)-1-(5-methyl-7H-pyrrolo[2,3-d]pyrimidin-4-yl)piperidin-4-amine, reference compound] | 0.57 | 26.3 | 45.9 |
| Cc1c[nH]c2ncnc(N3CCC(N)(CNc4ccc(Cl)cc4)C3)c12 (stereo not drawn) [Example 200, 3-(4-chloro(phenylamino)methyl)-1-(5-methyl-7H-pyrrolo[2,3-d]pyrimidin-4-yl)pyrrolidin-3-amine] | 2.36 | 279 | 118 |
